Measured values published in the NIST ThermoML archive (doi:10.1021/je900503p).
Values joined by “and” are separate entries in the source; they are usually repeats but may differ in a detail not shown here. Equal entries are not always repeated. ± gives the expanded uncertainty stated by the source.

Legend:
[1] = 101 kPa, Liquid
[2] = refractive index (Na D-line) (dimensionless); conditions: 101.33 kPa, Liquid
[3] = relative permittivity at zero frequency (dimensionless); conditions: 101 kPa, Liquid, Dekameter

| mass density ([1]; 293.15 K) [kg/m3] | mass density ([1]; 298.15 K) [kg/m3] | mass density ([1]; 303.15 K) [kg/m3] | mass density ([1]; 313.15 K) | refractive index ([2]; 293.15 K) | refractive index ([2]; 298.15 K) | refractive index ([2]; 303.15 K) | refractive index ([2]; 313.15 K) | relative permittivity at zero frequency ([3]; 293.15 K) | relative permittivity at zero frequency ([3]; 298.15 K) | relative permittivity at zero frequency ([3]; 303.15 K) | relative permittivity at zero frequency ([3]; 313.15 K) | Structure (SMILES) |
| --- | --- | --- | --- | --- | --- | --- | --- | --- | --- | --- | --- | --- |
| 809.52 ± 0.43 | 805.58 ± 0.43 | 801.92 ± 0.44 | 794.26 ± 0.45 kg/m3 | 1.3992 ± 0.0012 | 1.3972 ± 0.0012 | 1.3963 ± 0.0012 | 1.392 ± 0.0012 | 18.26 ± 0.06 | 17.54 ± 0.06 | 16.89 ± 0.06 | 15.45 ± 0.06 | CCCCO [butan-1-ol] |
| 805.54 ± 0.46 | 802.06 ± 0.47 | 798.45 ± 0.47 | 790.07 ± 0.48 kg/m3 | 1.3992 ± 0.0012 | 1.3954 ± 0.0012 | 1.3948 ± 0.0012 | 1.391 ± 0.0012 | 17.51 ± 0.06 | 16.58 ± 0.06 | 15.75 ± 0.06 | 14.44 ± 0.06 | CCC(C)O (stereo unspecified) [butan-2-ol] |

| Structure (SMILES) | mass density ([1]; 293.15 K) [kg/m3] | mass density ([1]; 298.15 K) [kg/m3] | mass density ([1]; 303.15 K) [kg/m3] | mass density ([1]; 313.15 K) | refractive index ([2]; 293.15 K) | refractive index ([2]; 298.15 K) | refractive index ([2]; 303.15 K) | refractive index ([2]; 313.15 K) | relative permittivity at zero frequency ([3]; 293.15 K) | relative permittivity at zero frequency ([3]; 298.15 K) | relative permittivity at zero frequency ([3]; 303.15 K) | relative permittivity at zero frequency ([3]; 313.15 K) |
| --- | --- | --- | --- | --- | --- | --- | --- | --- | --- | --- | --- | --- |
| O=C1CCCO1 [γ-butyrolactone] | 1128.79 ± 0.58 | 1123.75 ± 0.57 | 1118.79 ± 0.56 | 1121.76 ± 0.56 kg/m3 and 1108.88 ± 0.54 kg/m3 | 1.437 ± 0.0013 | 1.4356 ± 0.0013 | 1.4334 ± 0.0013 | 1.429 ± 0.0013 | 42.34 ± 0.06 and 42.81 ± 0.06 | 41.64 ± 0.06 | 41.1 ± 0.06 | 39.92 ± 0.06 |
